# According to patent US9309242B2, “Substituted pyrido[2,3-b]pyrazines as FGFR kinase inhibitors” (priority 2011, dated 2016):
# Like-named read-outs stand apart in the source and are kept apart here.
# Assays:
# KDR (h) = KDR (h) (Homo sapiens, UniProt P35968); assay: KDR (VEGFR2) (enzymatic assay), TR-FRET; type: biochemical; settings: read-out: VEGFR 2 (KDR) pIC50 (converted)
# In short: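 Human KDR (150 ng/ml) was reacted with 500 nM Btn-Flt3 and 3 μM ATP in 50 mM HEPES pH 7.5, 6 mM MnCl2, 1 mM DTT, 0.1 mM Na3VO4, 0.01% Triton X-100, 1% DMSO, for 120 min at room temperature. Phosphorylation detected by TR-FRET (Eu-anti-P-Tyr/SA-XL665, 60 min), read in RFU.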
# [1] = target: T1, Ba/F3-KDR-transfected cells (Homo sapiens, UniProt P35968); assay: Ba/F3-KDR (minus IL3) cellular proliferation assay, Alamar Blue; type: cell-based
# T1 construct: BAF3-KDR (MIN IL3) pIC50; other: minus IL3
# In short: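 Ba/F3-KDR-transfected cells, 20000 per well in phenol red free RPMI-1640 with 10% FBS, exposed to compound 24 hours at 37° C, 5% CO2; Alamar Blue then added for 4 hours and fluorescence read (ex. 540 nm, em. 590 nm). Plus-IL3 counterscreen run identically with 10 ng/ml murine IL3.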
# [2] = system: Ba/F3-Flt3-transfected cells; assay: Ba/F3-Flt3 (plus IL3) cellular proliferation assay, counterscreen with 10 ng/ml murine IL3; type: cell-based; settings: read-out: BAF3_FLT3 (PLUS IL3) pIC50 (converted)
# Protocol: (§1) Ba/F3-Flt3 (Minus IL3 or Plus IL3) (Cellular Proliferation Assay)
# (§2) In a 384 well plate, 100 nl of compound dilution in DMSO was sprayed before adding 50 μl cell culture medium (phenol red free RPMI-1640, 10% FBS, 2 mM L-Glutamine and 50 μg/ml Gentamycin) containing 20000 cells per well of Ba/F3-Flt3-transfected cells. Cells were put in an incubator at 37° C. and 5% CO2. After 24 hours, 10 μl of Alamar Blue solution (0.5 mM K3Fe(CN)6, 0.5 mM K4Fe(CN)6, 0.15 mM Resazurin and 100 mM Phosphate Buffer) was added to the wells, incubated for 4 hours at 37° C. and 5% CO2 before RFU's (Relative Fluorescence Units) (ex. 540 nm., em. 590 nm.) were measured in a fluororescence plate reader.
# As a counterscreen the same experiment was performed in the presence of 10 ng/ml murine IL3.
# [3] = target: T2, Ba/F3-Flt3-transfected cells (Homo sapiens, UniProt P36888, cells depend on it, form not given); assay: Ba/F3-Flt3 (minus IL3) cellular proliferation assay, Alamar Blue; type: cell-based
# T2 construct: BAF3-FLT3 (MIN IL3) pIC50; other: minus IL3
# T2 sequence (P36888 1-993): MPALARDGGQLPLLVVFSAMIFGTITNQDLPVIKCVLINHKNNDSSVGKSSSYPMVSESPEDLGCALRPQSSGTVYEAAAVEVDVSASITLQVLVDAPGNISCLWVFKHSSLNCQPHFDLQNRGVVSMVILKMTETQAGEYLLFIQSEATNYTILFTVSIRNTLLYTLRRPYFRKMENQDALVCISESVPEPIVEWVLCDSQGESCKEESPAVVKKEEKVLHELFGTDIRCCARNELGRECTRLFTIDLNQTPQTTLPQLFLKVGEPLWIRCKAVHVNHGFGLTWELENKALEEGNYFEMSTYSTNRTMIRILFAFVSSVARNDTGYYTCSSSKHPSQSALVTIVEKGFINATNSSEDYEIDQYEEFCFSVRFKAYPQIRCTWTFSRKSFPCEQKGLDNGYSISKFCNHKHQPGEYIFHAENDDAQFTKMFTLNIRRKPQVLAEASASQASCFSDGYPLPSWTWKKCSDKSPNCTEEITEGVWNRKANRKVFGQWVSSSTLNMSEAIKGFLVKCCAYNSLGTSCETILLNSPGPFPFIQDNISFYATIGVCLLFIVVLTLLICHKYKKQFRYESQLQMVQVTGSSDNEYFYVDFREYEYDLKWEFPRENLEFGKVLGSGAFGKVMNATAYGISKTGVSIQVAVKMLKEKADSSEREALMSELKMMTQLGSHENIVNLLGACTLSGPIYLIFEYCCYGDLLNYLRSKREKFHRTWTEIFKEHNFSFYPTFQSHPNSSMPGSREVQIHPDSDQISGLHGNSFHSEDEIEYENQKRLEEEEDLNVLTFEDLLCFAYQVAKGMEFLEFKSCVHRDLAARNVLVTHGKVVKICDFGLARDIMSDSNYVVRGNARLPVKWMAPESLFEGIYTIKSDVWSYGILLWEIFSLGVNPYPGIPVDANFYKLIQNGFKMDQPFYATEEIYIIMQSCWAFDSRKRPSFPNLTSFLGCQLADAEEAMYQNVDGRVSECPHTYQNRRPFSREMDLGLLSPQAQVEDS
# Protocol: as §1
# as §2, with “reader. […]” for “reader.”
# [4] = average values if tested multiple times
# Chain of KDR (h) (P35968 20-1356): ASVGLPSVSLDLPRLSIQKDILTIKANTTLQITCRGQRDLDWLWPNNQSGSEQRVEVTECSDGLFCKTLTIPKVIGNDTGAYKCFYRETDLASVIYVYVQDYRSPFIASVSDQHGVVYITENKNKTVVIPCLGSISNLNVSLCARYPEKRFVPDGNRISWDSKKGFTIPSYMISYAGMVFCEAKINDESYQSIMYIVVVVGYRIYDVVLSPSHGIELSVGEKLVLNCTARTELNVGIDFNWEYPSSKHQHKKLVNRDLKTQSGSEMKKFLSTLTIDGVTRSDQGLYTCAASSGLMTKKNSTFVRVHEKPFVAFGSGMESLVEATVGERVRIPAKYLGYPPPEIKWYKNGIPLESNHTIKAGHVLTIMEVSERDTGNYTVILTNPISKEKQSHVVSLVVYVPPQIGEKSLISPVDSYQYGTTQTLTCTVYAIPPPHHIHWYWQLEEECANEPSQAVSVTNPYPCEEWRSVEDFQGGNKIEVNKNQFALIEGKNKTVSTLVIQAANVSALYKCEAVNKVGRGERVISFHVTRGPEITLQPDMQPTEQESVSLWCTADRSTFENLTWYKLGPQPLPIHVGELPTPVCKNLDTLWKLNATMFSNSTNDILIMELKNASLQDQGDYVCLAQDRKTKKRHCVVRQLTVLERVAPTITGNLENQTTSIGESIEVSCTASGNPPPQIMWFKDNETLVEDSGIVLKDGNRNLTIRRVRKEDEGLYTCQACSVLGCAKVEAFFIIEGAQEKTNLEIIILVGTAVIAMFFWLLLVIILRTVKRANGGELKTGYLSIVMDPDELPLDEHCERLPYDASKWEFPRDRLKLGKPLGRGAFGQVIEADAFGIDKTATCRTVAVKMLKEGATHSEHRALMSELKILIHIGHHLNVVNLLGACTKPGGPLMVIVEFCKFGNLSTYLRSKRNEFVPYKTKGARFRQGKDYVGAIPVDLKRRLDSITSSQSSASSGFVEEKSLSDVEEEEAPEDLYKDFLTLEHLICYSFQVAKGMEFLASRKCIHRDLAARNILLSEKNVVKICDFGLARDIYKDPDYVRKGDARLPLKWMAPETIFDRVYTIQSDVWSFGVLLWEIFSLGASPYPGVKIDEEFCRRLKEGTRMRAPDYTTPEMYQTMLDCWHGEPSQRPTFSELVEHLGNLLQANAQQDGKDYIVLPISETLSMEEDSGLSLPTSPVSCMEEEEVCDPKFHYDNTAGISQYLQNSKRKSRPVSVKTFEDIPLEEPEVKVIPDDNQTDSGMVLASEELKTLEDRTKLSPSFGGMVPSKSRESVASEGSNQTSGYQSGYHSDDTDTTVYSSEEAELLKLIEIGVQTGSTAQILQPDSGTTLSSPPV
# T1 sequence (P35968 whole entry, change not shown): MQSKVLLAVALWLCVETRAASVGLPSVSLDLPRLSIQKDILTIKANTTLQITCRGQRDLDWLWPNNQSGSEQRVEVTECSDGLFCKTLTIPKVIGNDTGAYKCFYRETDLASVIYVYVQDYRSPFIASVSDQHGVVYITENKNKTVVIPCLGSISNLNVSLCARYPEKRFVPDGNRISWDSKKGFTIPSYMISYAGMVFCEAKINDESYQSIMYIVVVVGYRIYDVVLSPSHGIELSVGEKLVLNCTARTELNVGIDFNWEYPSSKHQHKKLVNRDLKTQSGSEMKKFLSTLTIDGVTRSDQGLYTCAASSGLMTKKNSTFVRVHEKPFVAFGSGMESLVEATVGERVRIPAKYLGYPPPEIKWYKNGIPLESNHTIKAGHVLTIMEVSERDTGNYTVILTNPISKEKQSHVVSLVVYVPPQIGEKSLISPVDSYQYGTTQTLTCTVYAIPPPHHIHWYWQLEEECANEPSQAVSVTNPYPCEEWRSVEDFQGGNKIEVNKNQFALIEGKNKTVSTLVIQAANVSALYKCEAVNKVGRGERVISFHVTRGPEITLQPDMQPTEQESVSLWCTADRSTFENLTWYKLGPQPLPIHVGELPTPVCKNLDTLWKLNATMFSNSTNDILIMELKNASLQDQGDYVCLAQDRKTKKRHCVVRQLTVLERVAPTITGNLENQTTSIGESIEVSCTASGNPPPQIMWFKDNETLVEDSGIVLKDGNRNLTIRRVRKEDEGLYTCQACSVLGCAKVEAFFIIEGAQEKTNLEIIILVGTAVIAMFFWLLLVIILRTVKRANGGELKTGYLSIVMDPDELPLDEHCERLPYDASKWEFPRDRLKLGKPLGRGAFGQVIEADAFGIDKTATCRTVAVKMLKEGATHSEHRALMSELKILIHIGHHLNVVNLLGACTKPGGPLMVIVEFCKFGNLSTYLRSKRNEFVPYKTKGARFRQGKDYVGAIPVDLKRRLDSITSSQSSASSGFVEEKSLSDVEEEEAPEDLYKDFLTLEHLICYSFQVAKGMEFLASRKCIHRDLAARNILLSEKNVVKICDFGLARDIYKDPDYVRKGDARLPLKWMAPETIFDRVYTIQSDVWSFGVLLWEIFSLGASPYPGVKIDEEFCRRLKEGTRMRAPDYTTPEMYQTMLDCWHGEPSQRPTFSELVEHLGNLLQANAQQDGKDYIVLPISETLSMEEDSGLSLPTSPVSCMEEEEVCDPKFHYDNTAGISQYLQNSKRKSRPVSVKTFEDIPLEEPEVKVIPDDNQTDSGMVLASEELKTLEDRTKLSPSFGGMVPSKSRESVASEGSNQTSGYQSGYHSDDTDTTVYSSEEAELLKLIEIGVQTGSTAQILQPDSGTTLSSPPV
Structure (SMILES),IC50 (KDR (h); [4]) [µM],BAF3-KDR (MIN IL3) pIC50 [1],IC50 [2] [µM],BAF3-FLT3 (MIN IL3) pIC50 [3],melting point [°C],IC50 (KDR (h)) [µM]
CNCCN(c1ccc2ncc(-c3cnn(C)c3)nc2n1)c1cc(OC)cc(OC)c1F [Compound 39],0.0468,~6.19,> 10,<5,,
CNCCn1/c(=N/c2c(F)cccc2F)ccc2ncc(-c3cnn(C)c3)nc21 [Compound 44],> 1,<5,,,80,
COc1cc(/N=c2\ccc3ncc(-c4cnn(C)c4)nc3n2CC2CCC(=O)N2)c(F)c(OC)c1 (stereo not shown) [Compound 45],0.0135,~5.96,,,127,
COc1cc(OC)cc(N(CC2CCC(=O)N2)c2ccc3ncc(-c4cnn(C)c4)nc3n2)c1 (stereo not shown) [Compound 49],0.0603,5.16,,,182,
COCC(O)CN(c1ccc2ncc(-c3cnn(C)c3)nc2n1)c1c(F)c(OC)cc(OC)c1F (stereo not shown) [Compound 50],0.0219,6.23,,,162 to 163,
COCC(O)Cn1c(=Nc2c(F)c(OC)cc(OC)c2F)ccc2ncc(-c3cnn(C)c3)nc21 (stereo not shown) [Compound 51],0.00776,5.93,,,180,
COc1cc(OC)c(F)c(/N=c2\ccc3ncc(-c4cnn(C)c4)nc3n2CCCN2CCCC2=O)c1F [Compound 55],0.00282,7.13,,,227,
COc1cc(OC)cc(N(Cc2nc[nH]n2)c2ccc3ncc(-c4cnn(C)c4)nc3n2)c1 [Compound 71],0.0191,6.03,,,238,
COc1cc(O)cc(N(Cc2ncc[nH]2)c2ccc3ncc(-c4cnn(C)c4)nc3n2)c1F [Compound 95],0.00275,6.85,,,218,
COc1cc(OC)c(Cl)c(N(C[C@H]2CCC(=O)N2)c2ccc3ncc(-c4cnn(C)c4)nc3n2)c1Cl [Compound 97],0.0955,5.35,,,150,
COc1cc(O)cc(N(Cc2ncc[nH]2)c2ccc3ncc(-c4cnn(C)c4)nc3n2)c1 [Compound 103],0.00537,6.40,,,172,
COc1cc(OC)cc(N(CC2CCCCO2)c2ccc3ncc(-c4cnn(C)c4)nc3n2)c1 (stereo not shown) [Compound 129],,5.33,,,137,0.0589
COc1cc(OC)c(F)c(N(CC2CCCCO2)c2ccc3ncc(-c4cnn(C)c4)nc3n2)c1 (stereo not shown) [Compound 139],,5.33,,,94,0.0288
COc1cc(OC)c(F)c(N(Cc2nn[nH]n2)c2ccc3ncc(-c4cnn(C)c4)nc3n2)c1 [Compound 140],,<5,,,149,0.0562
